Source: ChEMBL document CHEMBL1137072, “Peptide deformylase inhibitors with activity against respiratory tract pathogens” (Bioorg Med Chem Lett, 2004)
≈ marks a conversion by molar mass, not a printed value. One block for each compound: values may come before it.

Experiments:
Escherichia coli = experiment: Minimum inhibitory concentration required for primary screening against in-house strain of Escherichia coli tested in vitro; type: functional
Staphylococcus capitis = experiment: Minimum inhibitory concentration required for primary screening against in-house strain of Staphylococcus capitis tested in vitro; type: functional
Peptide deformylase = target: T1, Peptide deformylase (Escherichia coli, UniProt Q9JN24); experiment: Inhibitory activity against Escherichia coli peptide deformylase (PDF) Nickel containing enzyme
T1 sequence (Q9JN24 whole entry): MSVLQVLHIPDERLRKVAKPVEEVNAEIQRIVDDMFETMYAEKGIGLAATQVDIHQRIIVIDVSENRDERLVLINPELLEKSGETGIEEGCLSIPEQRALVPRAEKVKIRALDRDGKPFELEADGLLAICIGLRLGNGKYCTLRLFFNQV

Moraxella catarrhalis [1] = experiment: Minimum inhibitory concentration required for primary screening against in-house strain of Moraxella catarrhalis tested in vitro; type: functional
Streptococcus pneumoniae [2] = experiment: Minimum inhibitory concentration required for primary screening against in-house strain of Streptococcus pneumoniae tested in vitro; Range- 0.5-1; type: functional
Haemophilus influenzae [3] = experiment: Minimum inhibitory concentration required for primary screening against in-house strain of Haemophilus influenzae tested in vitro; Range-0.125-2; type: functional
Haemophilus influenzae [4] = experiment: Minimum inhibitory concentration required for primary screening against in-house strain of Haemophilus influenzae tested in vitro; Range- 0.25-2; type: functional
Streptococcus pneumoniae [5] = experiment: Minimum inhibitory concentration required for primary screening against in-house strain of Streptococcus pneumoniae tested in vitro; Range- 1-2; type: functional
Moraxella catarrhalis [6] = experiment: Minimum inhibitory concentration required for primary screening against in-house strain of Moraxella catarrhalis tested in vitro; Range- 0.015-0.12; type: functional
Streptococcus pneumoniae [7] = experiment: Minimum inhibitory concentration required for primary screening against in-house strain of Streptococcus pneumoniae tested in vitro; Range- 0.25-0.5; type: functional
Haemophilus influenzae [8] = experiment: Minimum inhibitory concentration required for primary screening against in-house strain of Haemophilus influenzae tested in vitro; Range- 0.5-4; type: functional
Streptococcus pneumoniae [9] = experiment: Minimum inhibitory concentration required for primary screening against in-house strain of Streptococcus pneumoniae tested in vitro; Range- 0.06-2; type: functional
Streptococcus pneumoniae [10] = experiment: Minimum inhibitory concentration required for primary screening against in-house strain of Streptococcus pneumoniae tested in vitro; type: functional
Moraxella catarrhalis [11] = experiment: Minimum inhibitory concentration required for primary screening against in-house strain of Moraxella catarrhalis tested in vitro; Range- 0.125-0.25; type: functional
Haemophilus influenzae [12] = experiment: Minimum inhibitory concentration required for primary screening against in-house strain of Haemophilus influenzae tested in vitro; Range- 0.5-8; type: functional
Haemophilus influenzae [13] = experiment: Minimum inhibitory concentration required for primary screening against in-house strain of Haemophilus influenzae tested in vitro; Range- 0.125-2; type: functional

- MIC (Escherichia coli): 12.5 µM (≈ 4.53 µg/mL)
- MIC (Staphylococcus capitis): 12.5 µM (≈ 4.53 µg/mL)
SMILES: CCCC[C@H](CN(O)C=O)C(=O)N[C@H](C(=O)c1ccccc1)C(C)(C)C

SMILES: CCCC[C@H](CN(O)C=O)C(=O)N[C@H](C(=O)c1ccc(NS(C)(=O)=O)cc1)C(C)(C)C
- IC50 (Peptide deformylase): 4 nM

SMILES: CCCC[C@H](CN(O)C=O)C(=O)N[C@H](C(=O)c1ccc(OC)cc1)C(C)(C)C
- IC50 (Peptide deformylase): 1 nM

SMILES: CC(C)(C)[C@H](NC(=O)[C@H](CC1CCCC1)CN(O)C=O)C(=O)c1ccc(S(C)(=O)=O)cc1
- MIC (Escherichia coli): 25 µM (≈ 11.7 µg/mL)
- MIC (Staphylococcus capitis): 6.25 µM (≈ 2.92 µg/mL)
- IC50 (Peptide deformylase): 10 nM

- MIC (Moraxella catarrhalis [1]): < 0.125 µg/mL
- MIC (Streptococcus pneumoniae [2]): < 1 µg/mL
- MIC (Haemophilus influenzae [3]): < 2 µg/mL
SMILES: CC(C)(C)[C@H](NC(=O)[C@H](CC1CCCC1)CN(O)C=O)C(=O)c1ccc(N2CCN(CCO)CC2)c(F)c1

SMILES: CC(C)(C)[C@H](NC(=O)[C@H](CC1CCCC1)CN(O)C=O)C(=O)c1ccc(N2CCN(CCO)CC2)cc1
- MIC (Haemophilus influenzae [4]): < 2 µg/mL
- MIC (Streptococcus pneumoniae [5]): < 2 µg/mL
- MIC (Moraxella catarrhalis [1]): < 0.125 µg/mL
- IC50 (Peptide deformylase): 2 nM

SMILES: CCCC[C@H](CN(O)C=O)C(=O)N[C@H](C(=O)c1ccc(F)cc1)C(C)(C)C
- IC50 (Peptide deformylase): 3 nM

SMILES: CC(C)(C)[C@H](NC(=O)[C@H](CC1CCCC1)CN(O)C=O)C(=O)c1cc(F)c(F)cc1N1CCOCC1
- MIC (Haemophilus influenzae [4]): < 2 µg/mL
- MIC (Moraxella catarrhalis [1]): < 0.125 µg/mL
- MIC90 (Moraxella catarrhalis [6]): 0.12 µg/mL (≈ 0.235 µM)
- MIC (Streptococcus pneumoniae [7]): < 0.5 µg/mL
- MIC90 (Haemophilus influenzae [8]): 2 µg/mL (≈ 3.92 µM)
- IC50 (Peptide deformylase): 0.5 nM
- MIC90 (Streptococcus pneumoniae [9]): 1 µg/mL (≈ 1.96 µM)

SMILES: CC(C)(C)[C@H](NC(=O)[C@H](CC1CCCC1)CN(O)C=O)C(=O)c1ccc(N2CCOCC2)c(F)c1
- MIC (Moraxella catarrhalis [1]): < 0.125 µg/mL
- MIC (Streptococcus pneumoniae [10]): 0.25 µg/mL (≈ 0.509 µM)
- MIC (Haemophilus influenzae [8]): < 4 µg/mL
- IC50 (Peptide deformylase): 0.6 nM

SMILES: CCCC[C@H](CN(O)C=O)C(=O)N[C@H](C(=O)c1ccccn1)C(C)(C)C
- IC50 (Peptide deformylase): 3 nM

SMILES: CCCC[C@H](CN(O)C=O)C(=O)N[C@H](C(=O)c1cc2ccccc2o1)C(C)(C)C
- MIC (Staphylococcus capitis): 1.5 µM (≈ 0.604 µg/mL)
- IC50 (Peptide deformylase): 4 nM

SMILES: CC(C)(C)[C@H](NC(=O)[C@H](CC1CCCC1)CN(O)C=O)C(=O)c1cc2ccccc2o1
- IC50 (Peptide deformylase): 4 nM

SMILES: CC(C)(C)[C@H](NC(=O)[C@H](CC1CCCC1)CN(O)C=O)C(=O)c1ccc(O)cc1
- MIC (Escherichia coli): 6.25 µM (≈ 2.53 µg/mL)
- MIC (Staphylococcus capitis): 3.1 µM (≈ 1.25 µg/mL)
- IC50 (Peptide deformylase): 2 nM

SMILES: COc1ccc(C(=O)[C@@H](NC(=O)[C@H](CC2CCCC2)CN(O)C=O)C(C)(C)C)cc1
- IC50 (Peptide deformylase): 3 nM

SMILES: CC(C)(C)[C@H](NC(=O)[C@H](CC1CCCC1)CN(O)C=O)C(=O)c1ccc(N2CCN(CCN3CCCC3)CC2)c(F)c1
- MIC (Moraxella catarrhalis [11]): < 0.25 µg/mL
- MIC (Haemophilus influenzae [12]): < 8 µg/mL
- MIC (Streptococcus pneumoniae [7]): < 0.5 µg/mL
- IC50 (Peptide deformylase): 9 nM

SMILES: CCCC[C@H](CN(O)C=O)C(=O)N[C@H](C(=O)c1ccc(NC(C)=O)cc1)C(C)(C)C
- MIC (Escherichia coli): 12 µM (≈ 5.03 µg/mL)
- IC50 (Peptide deformylase): 8 nM

SMILES: CC(C)(C)[C@H](NC(=O)[C@H](CC1CCCC1)CN(O)C=O)C(=O)c1ccc(N2CCC(O)CC2)cc1
- MIC (Haemophilus influenzae [4]): < 2 µg/mL
- MIC (Moraxella catarrhalis [1]): < 0.125 µg/mL
- MIC (Streptococcus pneumoniae [10]): 0.25 µg/mL (≈ 0.513 µM)
- IC50 (Peptide deformylase): 2 nM

SMILES: CC(C)(C)[C@H](NC(=O)[C@H](CC1CCCC1)CN(O)C=O)C(=O)c1ccc(F)cc1
- IC50 (Peptide deformylase): 3 nM

SMILES: CC(C)(C)[C@H](NC(=O)[C@H](CC1CCCC1)CN(O)C=O)C(=O)c1cc(F)c(F)cc1N1CCC(O)CC1
- MIC (Haemophilus influenzae [4]): < 2 µg/mL
- MIC (Moraxella catarrhalis [1]): < 0.125 µg/mL
- MIC (Streptococcus pneumoniae [7]): < 0.5 µg/mL
- IC50 (Peptide deformylase): 1 nM

SMILES: CC(C)(C)[C@H](NC(=O)[C@H](CC1CCCC1)CN(O)C=O)C(=O)c1ccc(N2CCC(O)CC2)c(F)c1
- MIC (Haemophilus influenzae [13]): < 2 µg/mL
- MIC (Moraxella catarrhalis [1]): < 0.125 µg/mL
- MIC (Streptococcus pneumoniae [10]): 0.25 µg/mL (≈ 0.494 µM)
- IC50 (Peptide deformylase): 2 nM
